Results: article PMC12652692, “Synthesis and In Vitro Anticancer Evaluation of Novel Phosphonium Derivatives of Chrysin” (International Journal of Molecular Sciences, 2025)

What was measured:
Format in all cases: cell-based
[1] = test system: MDA-MB-468; test: NCI60 one-dose screen; conditions: Homo sapiens; MDA-MB-468, 10 μM; read-out: Growth percent
In short: (§1)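 Each cell line received a single 10 µM dose. Cells were fixed with cold TCA after 48 h, stained with 0.4% SRB, and read at 515 nm, with percent growth normalised to the control and time-zero plates.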

[2] = test system: MALME-3M; test: NCI60 one-dose screen; conditions: Homo sapiens, read-out: Growth percent
In short: as §1

[3] = test system: NCI-H226; test: NCI60 one-dose screen; conditions: Homo sapiens; NCI-H226, 10 μM; read-out: Growth percent
In short: as §1

[4] = test system: UO-31; test: NCI60 one-dose screen; conditions: Homo sapiens; UO-31, 10 μM; read-out: Growth percent
In short: as §1

[5] = test system: EKVX; test: NCI60 one-dose screen; conditions: Homo sapiens, read-out: Growth percent
In short: as §1

[6] = test system: SK-MEL-28; test: NCI60 one-dose screen; conditions: Homo sapiens; SK-MEL-28, 10 μM; read-out: Growth percent
In short: as §1

[7] = test system: MDA-MB-231/ATCC; test: NCI60 one-dose screen; conditions: Homo sapiens, read-out: Growth percent
In short: as §1

[8] = test system: TK-10; test: NCI60 one-dose screen; conditions: Homo sapiens; TK-10, 10 μM; read-out: Growth percent
In short: as §1

[9] = test system: HCT-116; test: NCI60 one-dose screen; conditions: Homo sapiens; HCT-116, 10 μM; read-out: Growth percent
In short: as §1

[10] = test system: BT-549; test: NCI60 one-dose screen; conditions: Homo sapiens; BT-549, 10 μM; read-out: Growth percent
In short: as §1

[11] = test system: SF-268; test: NCI60 one-dose screen; conditions: Homo sapiens; SF-268, 10 μM; read-out: Growth percent
In short: as §1

[12] = test system: MOLT-4; test: NCI60 one-dose screen; conditions: Homo sapiens; MOLT-4, 10 μM; read-out: Growth percent
In short: as §1

[13] = test system: K-562; test: NCI60 one-dose screen; conditions: Homo sapiens, K562; K-562, 10 μM; read-out: Growth percent
In short: as §1

[14] = test system: NCI-H322M; test: NCI60 one-dose screen; conditions: Homo sapiens, read-out: Growth percent
In short: as §1

[15] = test system: SN12C; test: NCI60 one-dose screen; conditions: Homo sapiens, read-out: Growth percent
In short: as §1

[16] = test system: A498; test: NCI60 one-dose screen; conditions: Homo sapiens; A498, 10 μM; read-out: Growth percent
In short: as §1

[17] = test system: CCRF-CEM; test: NCI60 one-dose screen; conditions: Homo sapiens, read-out: Growth percent
In short: as §1

[18] = test system: HOP-62; test: NCI60 one-dose screen; conditions: Homo sapiens; HOP-62, 10 μM; read-out: Growth percent
In short: as §1

[19] = test system: 786-0; test: NCI60 one-dose screen; conditions: Homo sapiens; 786-0, 10 μM; read-out: Growth percent
In short: as §1

[20] = test system: 60 human cancer cell lines; test: NCI60 one-dose screen, overall mean; conditions: mean over all 60 cell lines, read-out: Mean growth percent
Description: The screening results are presented in the Supplementary Materials (Table S1), where the cytotoxicity was determined for the 10 µM concentration. […] The negative numbers indicate significant decreases in the cell number. […] Compared to the reference chrysin (2), all phosphonium hybrids (3a–h) had significant antiproliferative activities. […] At the same time, it should be noted that more than 60% average reduction was also obtained in the case of the other examined conjugates (3a–h).
A detailed description of the NCI screening procedures, including the one-dose and five-dose tests, can be found in the Supplementary Materials, on the website of NCI [39], and in our previous work.
A detailed description of the NCI screening procedures can also be found on the website of NCI [39], and in our […]
All candidates were examined at first at a single high dose (10 μM) in the full NCI60 cell panel. The value reported for the one-dose test is growth relative to the no-drug control and relative to the time zero number of cells. This made possible the disclosure of both growth inhibition (numbers between 0 and 100) and lethality (numbers less than 0). For example, a value of 100 means no growth inhibition. A value of 20 would mean 80% growth inhibition. A value of 0 means no net growth over the course of the analysis. A value of −20 would mean 20% lethality. A value of −100 means all cells are dead. […]
concentration levels. The human tumor cell lines of the cancer screening panel were grown in RPMI 1640 medium containing 5% fetal bovine serum and 2 mM l-glutamine. Characteristically, cells were injected in 96-well microtiter plates in 0.1 mL at plating densities ranging from 5000 to 40,000 cells/well, depending on the doubling time of individual cell lines. After cell inoculation, the microtiter plates were incubated at 37 °C, 5% carbon dioxide, 95% air, and 100% relative humidity for 24 hours before the addition of tested compounds. After 24 hours, 2 plates of each cell line were fixed in situ with Cl3COOH (TCA), to represent a measurement of the cell population for each cell line at the time of drug addition (tz). Tested compounds were solubilized in DMSO at 400-fold the desired final maximum test concentration and stored frozen before application. In the course of the drug addition, an aliquot of frozen concentrate was thawed and diluted to twice the desired final maximum test concentration with a complete medium containing 50 μg mL−1 gentamicin. Additional four, 10-fold or ½ log serial dilutions were produced to furnish a total of five drug concentrations plus control. Aliquots of 0.1 mL of these different drug dilutions were added to the appropriate microtiter wells already containing 0.1 mL of medium, resulting in the required final drug concentrations.
Following drug addition, the plates were incubated at 37 °C, 5% carbon dioxide, 95% air, and 100% relative humidity for an additional 48 hours. For adherent cells, the test was finished by the addition of cold Cl3COOH. Cells were fixed in situ by the addition of 50 μL of cold 50% (w/v) Cl3COOH, and incubated at 4 °C for 1 hour. The supernatant was discarded, and the plates were washed with H2O (5×) and dried in air. Sulforhodamine B (SRB) solution (0.1 mL) at 0.4% (w/v) in 1% CH3COOH was added to each well, and plates were incubated at RT for 10 min. After staining, the unbound dye was removed by washing five times with 1% CH3COOH, and the plates were dried in the air. The bound stain is afterward solubilized with a 10 mM trizma base, and the absorbance is read on an automated plate reader at λ = 515 nm. Utilizing the seven absorbance measurements [time zero (tz), control growth (c), and test growth in the presence of the drug at the five concentration levels (ti)], the percentage growth was determined at each of the drug concentration levels. Growth inhibition (%) was calculated as:
[(ti − tz)/(c − tz)] × 100, for concentrations where ti ≥ tz (1) […]

Compound | activity at 10 µM [1] | activity at 10 µM [2] | activity at 10 µM [3] | activity at 10 µM [4] | activity at 10 µM [5] | activity at 10 µM [6] | activity at 10 µM [7] | activity at 10 µM [8] | activity at 10 µM [9] | activity at 10 µM [10] | activity at 10 µM [11] | activity at 10 µM [12] | activity at 10 µM [13] | activity at 10 µM [14] | activity at 10 µM [15] | activity at 10 µM [16] | activity at 10 µM [17] | activity at 10 µM [18] | activity at 10 µM [19] | activity at 10 µM [20]
O=c1cc(-c2ccccc2)oc2cc(OCCCC[P+](c3ccccc3)(c3ccccc3)c3ccccc3)cc(O)c12 [3a] | -84.9% | -88% | -29% | -97.1% | -97.6% | -98.5% | -32.2% | -81.8% | -58.1% | -83% | -59% | -41.7% | -24.1% | -100% | -49.5% | -83.3% | -75.9% | -63.6% | -69.5% | -74.3%
Cc1ccc([P+](CCCCOc2cc(O)c3c(=O)cc(-c4ccccc4)oc3c2)(c2ccc(C)cc2)c2ccc(C)cc2)cc1 [3b] | -87% | -57.9% | -50.2% | -82.5% | -88.3% | -85.3% | -90.7% | -79.3% | 1.29% | -19% | -61.3% | -43.4% | -4.21% | -79.5% | -84.4% | -81.5% | -70.5% | -62% | -69.8% | -69.9%
COc1ccc([P+](CCCCOc2cc(O)c3c(=O)cc(-c4ccccc4)oc3c2)(c2ccc(OC)cc2)c2ccc(OC)cc2)cc1 [3c] | -77.4% | -45% | -67.6% | -89.9% | -70.9% | -44.5% | -72.1% | -87.1% | -95.5% | -82.6% | -38.3% | -51.6% | -39.8% | -45.1% | -59% | -83% | -71.7% | -81.1% | -65.3% | -68.3%
O=c1cc(-c2ccccc2)oc2cc(OCCCC[P+](c3ccc(F)cc3)(c3ccc(F)cc3)c3ccc(F)cc3)cc(O)c12 [3d] | -85.7% | -82.4% | -56.9% | -86.9% | -83.9% | -92% | -95% | -84.8% | -66.6% | -76% | -71.6% | -24.3% | -17.6% | -88.3% | -82.1% | -87.6% | -55.9% | -70.8% | -56.5% | -69.5%
O=c1cc(-c2ccccc2)oc2cc(OCCCC[P+](C3CCCCC3)(C3CCCCC3)C3CCCCC3)cc(O)c12 [3e] | -83.5% | -76.9% | -56.7% | -92.5% | -83.5% | -41.4% | -81.6% | -91.3% | -62% | -89.9% | -67.5% | -60.6% | 3.17% | -85.2% | -57% | -87.6% | -66.7% | -82.6% | -80.1% | -76%
COc1c(C)cc([P+](CCCCOc2cc(O)c3c(=O)cc(-c4ccccc4)oc3c2)(c2cc(C)c(OC)c(C)c2)c2cc(C)c(OC)c(C)c2)cc1C [3f] | -76% | -42.5% | -58.5% | -59.6% | -76.5% | -85.7% | -74.8% | -84.7% | -47.6% | -53.4% | -66.5% | -42.5% | 6.85% | -62.2% | -77.4% | -83.4% | -32.6% | -25.2% | -47% | -63.4%
Cc1ccccc1[P+](CCCCOc1cc(O)c2c(=O)cc(-c3ccccc3)oc2c1)(c1ccccc1C)c1ccccc1C [3g] | -99.4% | -98.5% | -99.4% |  | -98.4% | -98.4% |  | -99.3% | -94.5% | -98.1% | -97.9% | -98.6% | -97.5% | -98.2% | -97% | -99.1% | -96.5% | -98.3% | -98.1% | -97.7%
O=c1cc(-c2ccccc2)oc2cc(OCCCC[P+](c3ccccc3)(c3ccccc3)c3ccccn3)cc(O)c12 [3h] | -90.7% | -93.4% | -50.4% | -94% | -93.1% | -94.7% | -94.3% | -93.3% | -61.6% | -69.7% | -67.6% | 21.1% | -51.3% | -94.5% | -91.4% | -94% | -20.7% | -57% | -74.5% | -72.3%
